Laboratory results reported in patent US9504669B2, “Spliceostatin analogs and methods for their preparation” (PFIZER INC., priority 2012, dated 2016).

Legend:
human cancer cell lines = conditions: Journal of Antibiotics (1996), 49(12), 1204-1211; cited from earlier work
xenograft tumor models = conditions: Journal of Antibiotics (1996), 49(12), 1204-1211; cited from earlier work
[1] = system: spliceosome (SF3b, component of the subcomplex U2 snRNA); conditions: Nature Chemical Biology (2007), 3(9), 576-583; Nature (2010), 468(7324), 664-668; cited from earlier work
[2] = system: N87 (gastric cancer) cells; test: In vitro cell assay (MTS cell viability), N87; type: cell-based; conditions: 96 h, free compounds (natural products and synthetic analogs); cell viability 96 hours after treatment
How it was run: (§1)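 Cells seeded 24 h, then treated with antibody-drug conjugates or free drug, 3-fold serial dilutions at 10 concentrations in duplicate. Viability by MTS at 96 h as percent of untreated control; IC50 from four-parameter logistic fit.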

[3] = system: BT474 (breast cancer) cells; test: In vitro cell assay (MTS cell viability), BT474; type: cell-based; conditions: Homo sapiens, BT-474; free compounds (natural products and synthetic analogs); cell viability 96 hours after treatment
How it was run: as §1

[4] = system: MDA-MB-361-DYT2 (breast cancer) cells; test: In vitro cell assay (MTS cell viability), MDA-MB-361-DYT2; type: cell-based; conditions: 96 h, free compounds (natural products and synthetic analogs); cell viability 96 hours after treatment
How it was run: as §1

[5] = system: MDA-MB-468 cells (target non-expressing); test: In vitro cell assay (MTS cell viability), MDA-MB-468; type: cell-based; conditions: Homo sapiens, MDA-MB-468, 96 h, read-out: MDA-MB-468 IC50 (nM)
Method: Target expressing (BT474 (breast cancer), N87 (gastric cancer), HCC1954 (breast cancer), MDA-MB-361-DYT2 (breast cancer)) or non-expressing (MDA-MB-468) cells were seeded in 96-well cell culture plates for 24 hours before treatment. Cells were treated with 3-fold serially diluted antibody-drug conjugates or free compounds (i.e., no antibody conjugated to the drug) in duplicate at 10 concentrations. Cell viability was determined by CellTiter 96® AQueous One Solution Cell Proliferation MTS Assay (Promega, Madison Wis.) 96 hours after treatment. Relative cell viability was determined as percentage of untreated control. IC50 values were calculated using a four parameter logistic model #203 with XLfit v4.2 (IDBS, Guildford, Surry, UK). The potency ranged upward from 0.0002 nm. Similar procedures and techniques were employed.

For `CC(=O)O[C@@H](C)/C=C\C(=O)N[C@@H]1C[C@H](C)[C@H](C/C=C(C)/C=C/[C@H]2O[C@](C)(O)C[C@@](O)(CCl)[C@@H]2O)O[C@@H]1C` [FR901463], the “inhibitory activities against human cancer cell lines” value (shortened to “inhibitory activities”) (human cancer cell lines) is given as “potent inhibitory activities” and the “efficacies in xenograft tumor models” value (xenograft tumor models) is given as “efficacies in several xenograft tumor models”.
For `CC(=O)O[C@@H](C)/C=C\C(=O)N[C@@H]1C[C@H](C)[C@H](C/C=C(C)/C=C/[C@H]2O[C@](C)(O)C[C@@]3(CO3)[C@@H]2O)O[C@@H]1C` [FR901464], the “inhibitory activities” value (human cancer cell lines) is given as “potent inhibitory activities”, the “efficacies in xenograft tumor models” value (xenograft tumor models) is given as “efficacies in several xenograft tumor models” and the “inhibition of the spliceosome” value [1] is given as “inhibit the spliceosome by interaction with SF3b”.
In the case of FR901465, the “inhibitory activities” value (human cancer cell lines) is given as “potent inhibitory activities” and the “efficacies in xenograft tumor models” value (xenograft tumor models) is given as “efficacies in several xenograft tumor models”.
In the case of `CO[C@]1(C)C[C@@]2(CO2)[C@H](O)[C@@H](/C=C/C(C)=C/C[C@@H]2O[C@H](C)[C@H](NC(=O)/C=C\[C@H](C)OC(C)=O)C[C@@H]2C)O1` [spliceostatin A], the “inhibition of the spliceosome” value [1] is given as “inhibit the spliceosome by interaction with SF3b”.
Work on `CCCNC(=O)C[C@@H]1C[C@@]2(CO2)[C@H](O)[C@@H](/C=C/C(C)=C/C[C@@H]2O[C@H](C)[C@H](NC(=O)/C=C\[C@H](C)OC(C)=O)C[C@@H]2C)O1` [#B63, (2S,3Z)-5-({(2R,3R,5S,6S)-6-[(2E,4E)-5-{(3R,4R,5R,7S)-4-hydroxy-7-[2-oxo-2-(propylamino)ethyl]-1,6-dioxaspiro[2.5]oct-5-yl}-3-methylpenta-2,4-dien-1-yl]-2,5-dimethyltetrahydro-2H-pyran-3-yl}amino)-5-oxopent-3-en-2-yl acetate] yielded an IC50 [2] of 1.1 nM, an IC50 [3] of 0.651 nM and an IC50 [4] of 0.293 nM. It also gave an IC50 [5] of 0.348 nM.
For `CC(=O)O[C@@H](C)/C=C\C(=O)N[C@@H]1C[C@H](C)[C@H](C/C=C(C)/C=C/[C@H]2O[C@H](CC(=O)N[C@H]3CC[C@H](N)CC3)C[C@@]3(CO3)[C@@H]2O)O[C@@H]1C` [#B76, (2S,3Z)-5-{[(2R,3R,5S,6S)-6-{(2E,4E)-5-[(3R,4R,5R,7S)-7-{2-[(trans-4-aminocyclohexyl)amino]-2-oxoethyl}-4-hydroxy-1,6-dioxaspiro[2.5]oct-5-yl]-3-methylpenta-2,4-dien-1-yl}-2,5-dimethyltetrahydro-2H-pyran-3-yl]amino}-5-oxopent-3-en-2-yl acetate], the IC50 [2] was 331 nM, the IC50 [3] was 341 nM and the IC50 [4] was 885 nM. The IC50 [5] was 272 nM.
Compound `CC(=O)O[C@@H](C)/C=C\C(=O)N[C@@H]1C[C@H](C)[C@H](C/C=C(C)/C=C/[C@H]2O[C@H](CC(=O)O)C[C@@]3(CO3)[C@@H]2O)O[C@@H]1C` [#NP1, [(3R,5S,7R,8R)-7-{(1E,3E)-5-[(2S,3S,5R,6R)-5-{[(2Z,4S)-4-(acetyloxy)pent-2-enoyl]amino}-3,6-dimethyltetrahydro-2H-pyran-2-yl]-3-methylpenta-1,3-dien-1-yl}-8-hydroxy-1,6-dioxaspiro[2.5]oct-5-yl]acetic Acid] has an IC50 [2] of 61.6 nM, an IC50 [3] of 145 nM and an IC50 [4] of 160 nM. It also gave an IC50 [5] of 142 nM.
Compound `CC(=O)O[C@@H](C)/C=C\C(=O)N[C@@H]1C[C@H](C)[C@H](C/C=C(C)/C=C/[C@H]2O[C@H](CC(=O)N[C@H]3C[C@H](N)C3)C[C@@]3(CO3)[C@@H]2O)O[C@@H]1C` [#B73, (2S,3Z)-5-{[(2R,3R,5S,6S)-6-{(2E,4E)-5-[(3R,4R,5R,7S)-7-{2-[(trans-3-aminocyclobutyl)amino]-2-oxoethyl}-4-hydroxy-1,6-dioxaspiro[2.5]oct-5-yl]-3-methylpenta-2,4-dien-1-yl}-2,5-dimethyltetrahydro-2H-pyran-3-yl]amino}-5-oxopent-3-en-2-yl acetate] has an IC50 [2] of 174 nM, an IC50 [3] of 296 nM and an IC50 [4] of 443 nM. For the same compound, the IC50 [5] was 276 nM.
